Legend:
central CCK-B receptor = target: T1, central CCK-B receptor (Cavia porcellus, UniProt H0VZC5); experiment: Inhibition of the binding of [3-H][N-methyl-N-leucine]CCK-8 to guinea-pig cortical membranes; conditions: for IC50: guinea-pig cortical membranes, 150 minutes at 25° C.
T1 construct: Cerebral cortices of male white guinea-pigs were thus used; from tissue; host or cells: cerebral cortex membranes of male white guinea-pigs
T1 sequence (H0VZC5 1-426): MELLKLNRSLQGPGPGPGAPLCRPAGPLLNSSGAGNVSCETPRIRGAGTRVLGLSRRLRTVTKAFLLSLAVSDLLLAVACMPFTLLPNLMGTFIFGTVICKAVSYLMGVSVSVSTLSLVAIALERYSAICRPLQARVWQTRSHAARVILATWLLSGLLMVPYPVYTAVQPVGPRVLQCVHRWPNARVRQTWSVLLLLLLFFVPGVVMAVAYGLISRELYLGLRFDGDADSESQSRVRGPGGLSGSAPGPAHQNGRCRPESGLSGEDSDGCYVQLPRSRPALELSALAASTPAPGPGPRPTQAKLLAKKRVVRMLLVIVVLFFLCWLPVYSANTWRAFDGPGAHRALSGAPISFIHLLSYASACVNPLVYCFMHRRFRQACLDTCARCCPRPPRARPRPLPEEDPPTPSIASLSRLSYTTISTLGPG
Method: The ability of the compounds of the invention to interact with the central CCK-B receptor was evaluated with the use of non-sulphated [3-H] […] 225 (3) (1990), 1278-1286].
Cerebral cortices of male white guinea-pigs were thus used, according to the method mentioned above, so as to obtain a membrane content corresponding to about 300 mcg of proteins/ml. The membranes were incubated together with the radioactive tracer and the compounds under test for 150 minutes at 25° C. After the supernatant had been discarded, the radioactivity associated with the pellet was determined with a liquid scintillator. The specific binding was determined as the difference between the binding in the absence and in the presence of 5.10^-6 M CCK-8.

mouse = experiment: Black and White Box test in the mouse (anxiolytic activity); type: in vivo; conditions: for LIGHT TIME TOTAL TIME / LIGHT-DARK MOVEMENTS / MOV. DARK % TOTAL MOV. / TOTAL MOVEMENTS: 5 minutes; for anxiolytic activity, result in words: Black and White Box test, IP
Method: It has recently been postulated that the central CCK-B receptor has an important role in anxiety. This is in accordance with studies also carried out in man, which have shown that the central CCK-B mechanisms have an important function in the mediation of panic attacks [Bradwejn, H. et al; J. Psychopharmacology 6 (1992), 345]. […] This experimental model, which was carried out according to Costall et al [Pharm. Biochem. Behav. 32 (1989), 777-785], used a box with dimensions of 45×21×21(h) cm divided into 2 compartments which communicated with one another through a 13×5 cm hole. The smaller compartment (1/3 of the total area) had black walls, whereas the larger had transparent walls and was illuminated by a lamp which was placed 20 cm above the box and supplied light at 20W. Under the floor there was an activity meter which recorded the movements performed by the animal in the individual compartments. The experiment was started by placing the animal in the centre of the illuminated box; as well as movements, the time which the animal spent in the dark and in the light areas and the number of movements between the 2 compartments were then recorded for 5 minutes. A control animal generally preferred to stay in the dark compartment where it felt better protected from an unusual environmental situation which put it in a state of anxiety. In this experimental model, a compound having anxiolytic activity decreased the % of movements into the dark in comparison with the total movements, increased the movements between the two light-dark compartments, and increased the % of time spent in the light in comparison with the total time.
The results obtained are shown in Table 7, where the activities obtained with compounds 9, 21 and 51 are given, tested in comparison with diazepam.

O=C(O)CNC(=O)CC[C@@H](NC(=O)c1cc(Cl)cc(Cl)c1)C(=O)N1CCC2(CCCC2)CC1 [Compound 1]
IC50 (central CCK-B receptor): 1060 nM

O=C(O)CCNC(=O)CC[C@@H](NC(=O)c1cc(Cl)cc(Cl)c1)C(=O)N1CCC2(CCCC2)CC1 [Compound 3]
IC50 (central CCK-B receptor): 730 nM

O=C(O)CCCNC(=O)CC[C@@H](NC(=O)c1cc(Cl)cc(Cl)c1)C(=O)N1CCC2(CCCC2)CC1 [Compound 4]
IC50 (central CCK-B receptor): 1250 nM

CC(NC(=O)CC[C@@H](NC(=O)c1cc(Cl)cc(Cl)c1)C(=O)N1CCC2(CCCC2)CC1)C(=O)O (stereo partly drawn) [Compound 5]
IC50 (central CCK-B receptor): 1320 nM

CSCCC(NC(=O)CC[C@@H](NC(=O)c1cc(Cl)cc(Cl)c1)C(=O)N1CCC2(CCCC2)CC1)C(=O)O (stereo partly drawn) [Compound 7]
IC50 (central CCK-B receptor): 510 nM

O=C(CC[C@@H](NC(=O)c1cc(Cl)cc(Cl)c1)C(=O)N1CCC2(CCCC2)CC1)N[C@@H](C(=O)O)c1ccccc1 [Compound 13]
IC50 (central CCK-B receptor): 420 nM

O=C(CC[C@@H](NC(=O)c1cc(Cl)cc(Cl)c1)C(=O)N1CCC2(CCCC2)CC1)NC(Cc1ccc(Cl)cc1)C(=O)O (stereo partly drawn) [Compound 17]
IC50 (central CCK-B receptor): 680 nM

O=C(CC[C@@H](NC(=O)c1cc(Cl)cc(Cl)c1)C(=O)N1CCC2(CCCC2)CC1)N[C@H](Cc1cccnc1)C(=O)O [Compound 26]
IC50 (central CCK-B receptor): 250 nM

O=C(CC[C@@H](NC(=O)c1cccc(Cl)c1)C(=O)NCCC12CC3CC(CC(C3)C1)C2)N[C@H](Cc1c[nH]c2ccccc12)C(=O)O [Compound 31]
IC50 (central CCK-B receptor): 13900 nM

Cc1cccc(C(=O)N[C@H](CCC(=O)N[C@H](Cc2c[nH]c3ccccc23)C(=O)O)C(=O)N2CCC3(CCCC3)CC2)c1 [Compound 32]
IC50 (central CCK-B receptor): 3560 nM

CC(C)(C)CCNC(=O)[C@@H](CCC(=O)NC(Cc1ccccc1)C(=O)O)NC(=O)c1cccc(Cl)c1 (stereo partly drawn) [Compound 33]
IC50 (central CCK-B receptor): > 30000 nM

O=C(O)CC[C@@H](NC(=O)CC[C@@H](NC(=O)c1cc(Cl)cc(Cl)c1)C(=O)N1CCC2(CCCC2)CC1)C(=O)N1CCC2(CCCC2)CC1 [Compound 36]
IC50 (central CCK-B receptor): 1700 nM

CN(C(=O)[C@@H](CCC(=O)O)NC(=O)CC[C@@H](NC(=O)c1cc(Cl)cc(Cl)c1)C(=O)N1CCC2(CCCC2)CC1)c1ccccc1 [Compound 37]
IC50 (central CCK-B receptor): 700 nM

O=C(O)CC[C@@H](NC(=O)CC[C@@H](NC(=O)c1cc(Cl)cc(Cl)c1)C(=O)N1CCC2(CCCC2)CC1)C(=O)Nc1ccc2ccccc2c1 [Compound 39]
IC50 (central CCK-B receptor): 700 nM

O=C(O)CC[C@@H](NC(=O)CC[C@@H](NC(=O)c1cc(Cl)cc(Cl)c1)C(=O)N1CCC2(CCCC2)CC1)C(=O)NCCC12CC3CC(CC(C3)C1)C2 [Compound 40]
IC50 (central CCK-B receptor): > 30000 nM

O=C(O)CC[C@@H](NC(=O)CC[C@@H](NC(=O)c1cc(Cl)cc(Cl)c1)C(=O)N1CCC2(CCCC2)CC1)C(=O)NCCc1ccccc1 [Compound 41]
IC50 (central CCK-B receptor): 790 nM

CCCCCN(CCCCC)C(=O)[C@@H](CCC(=O)N[C@H](Cc1c[nH]c2ccccc12)C(=O)O)NC(=O)c1ccc2ccccc2c1 [Compound 42]
IC50 (central CCK-B receptor): 1880 nM

O=C(C[C@@H](NC(=O)c1cc(Cl)cc(Cl)c1)C(=O)N1CCC2(CCCC2)CC1)N[C@H](Cc1ccccc1)C(=O)O [Compound 44]
IC50 (central CCK-B receptor): 350 nM

CC(Cc1ccccc1)(NC(=O)CC[C@@H](NC(=O)c1cc(Cl)cc(Cl)c1)C(=O)N1CCC2(CCCC2)CC1)C(=O)O (stereo partly drawn) [Compound 45]
IC50 (central CCK-B receptor): 580 nM

CN(C(=O)c1cc(Cl)cc(Cl)c1)[C@H](CCC(=O)N[C@H](Cc1c[nH]c2ccccc12)C(=O)O)C(=O)N1CCC2(CCCC2)CC1 [Compound 46]
IC50 (central CCK-B receptor): 120 nM

CN(C(=O)CC[C@@H](NC(=O)c1cc(Cl)cc(Cl)c1)C(=O)N1CCC2(CCCC2)CC1)c1ccc(C(=O)O)cc1 [Compound 48]
IC50 (central CCK-B receptor): 440 nM

O=C(CC[C@@H](NC(=O)c1cc(Cl)cc(Cl)c1)C(=O)N1CCC2(CCCC2)CC1)Nc1cccc(C(=O)O)c1 [Compound 49]
IC50 (central CCK-B receptor): 1390 nM

O=C(CC[C@@H](NC(=O)c1ccccc1)C(=O)N1CCC2(CCCC2)CC1)Nc1ccc(C(=O)O)cc1 [Compound 54]
IC50 (central CCK-B receptor): 9210 nM

O=C(C[C@@H](NC(=O)c1cc(Cl)cc(Cl)c1)C(=O)N1CCC2(CCCC2)CC1)Nc1ccccc1C(=O)O [Compound 55]
IC50 (central CCK-B receptor): > 30000 nM

O=C(CC[C@@H](NC(=O)c1cc(Cl)cc(Cl)c1)C(=O)N1CCC2(CCCC2)CC1)NCc1ccc(C(=O)O)cc1 [Compound 56]
IC50 (central CCK-B receptor): 19500 nM

O=C(O)Cc1ccc(NC(=O)CC[C@@H](NC(=O)c2cc(Cl)cc(Cl)c2)C(=O)N2CCC3(CCCC3)CC2)cc1 [Compound 57]
IC50 (central CCK-B receptor): 7730 nM

O=C(CC[C@H](NC(=O)c1cc(Cl)cc(Cl)c1)C(=O)N1CCC2(CCCC2)CC1)N[C@H](Cc1ccccc1)C(=O)O [Compound S-9, reference compound]
times less active than its R diastereoisomer, compound 9 (centre *) (central CCK-B receptor; binding, guinea-pig cortex): about 250 times | IC50 (central CCK-B receptor): 38600 nM | CCK-B-antagonistic activity in vitro, result in words (central CCK-B receptor; see Table 3): weak CCK-B-antagonistic activity | EFF. % VS CONTROL (LIGHT TIME TOTAL TIME) (mouse; 1.0 mg/kg IP): 3% | EFF. % VS CONTROL (LIGHT-DARK MOVEMENTS) (mouse; 1.0 mg/kg IP): 6% | EFF. % VS CONTROL (MOV. DARK % TOTAL MOV.) (mouse; 1.0 mg/kg IP): -5% | LIGHT TIME TOTAL TIME (mouse; 1.0 mg/kg IP): 28.5% | LIGHT-DARK MOVEMENTS (mouse; 1.0 mg/kg IP): 18.2 | MOV. DARK % TOTAL MOV. (mouse; 1.0 mg/kg IP): 57% | TOTAL MOVEMENTS (mouse; 1.0 mg/kg IP): 528 | EFF. % VS CONTROL (LIGHT TIME TOTAL TIME) (mouse; 10.0 mg/kg IP): 0% | EFF. % VS CONTROL (LIGHT-DARK MOVEMENTS) (mouse; 10.0 mg/kg IP): 0% | EFF. % VS CONTROL (MOV. DARK % TOTAL MOV.) (mouse; 10.0 mg/kg IP): +3% | LIGHT TIME TOTAL TIME (mouse; 10.0 mg/kg IP): 24.9% | LIGHT-DARK MOVEMENTS (mouse; 10.0 mg/kg IP): 14.4 | MOV. DARK % TOTAL MOV. (mouse; 10.0 mg/kg IP): 62% | TOTAL MOVEMENTS (mouse; 10.0 mg/kg IP): 495 | anxiolytic activity, result in words (mouse): completely inactive

CN1C(=O)CN=C(c2ccccc2)c2cc(Cl)ccc21 [DIAZEPAM, diazepam, reference compound]
EFF. % VS CONTROL (LIGHT TIME TOTAL TIME) (mouse; 1.0 mg/kg IP): 19% | EFF. % VS CONTROL (LIGHT-DARK MOVEMENTS) (mouse; 1.0 mg/kg IP): 37% | EFF. % VS CONTROL (MOV. DARK % TOTAL MOV.) (mouse; 1.0 mg/kg IP): -5% | LIGHT TIME TOTAL TIME (mouse; 1.0 mg/kg IP): 29.3% | LIGHT-DARK MOVEMENTS (mouse; 1.0 mg/kg IP): 19.9 | MOV. DARK % TOTAL MOV. (mouse; 1.0 mg/kg IP): 53% | TOTAL MOVEMENTS (mouse; 1.0 mg/kg IP): 508 | EFF. % VS CONTROL (LIGHT TIME TOTAL TIME) (mouse; 3.0 mg/kg IP): 37% | EFF. % VS CONTROL (LIGHT-DARK MOVEMENTS) (mouse; 3.0 mg/kg IP): 54% | EFF. % VS CONTROL (MOV. DARK % TOTAL MOV.) (mouse; 3.0 mg/kg IP): -7% | LIGHT TIME TOTAL TIME (mouse; 3.0 mg/kg IP): 33.6% | LIGHT-DARK MOVEMENTS (mouse; 3.0 mg/kg IP): 22.3 | MOV. DARK % TOTAL MOV. (mouse; 3.0 mg/kg IP): 52% | TOTAL MOVEMENTS (mouse; 3.0 mg/kg IP): 539 | effect on the total movements parameter, result in words (mouse; 1 and 3 mg/kg): significantly increased | anxiolytic activity, result in words (mouse): active for all the parameters tested

Reference: patent publication US5962502A, “Polyamidic acid derivatives with antigastrin activity, a method for their preparation, and their pharmaceutical use” (priority 1993, dated 1999)
